Key:
[1] = tested on: human retinal endothelial cells (HREC); test: Testing 4: VEGF-induced HREC proliferation (MTS assay), Avastin with or without BOL-303050-X; type: cell-based; settings: for HREC proliferation in the presence of VEGF, compound alone: VEGF 10 ng/ml, 3 days
Experimental: HREC were first cultured overnight in a 96-well plate coated with fibronectin. The next day, cells were serum-starved for 2 hours before treatment. […] The cells were then cultured at 37° C., 5% CO2, and 95% humidity for another 3 days.
A 96-well plate was coated with human fibronectin (10 μg/ml) at 37° C. for 5 h. HREC were collected from flasks by EDTA-trypsin treatment and re-suspended in 10% FBS CS-C medium at 18,000 cells/ml. Cells (200 μl/well) were added to the plate and cultured overnight at 37° C., 5% CO2, and 95% humidity. The next day, medium was aspirated and 200 μl/well serum-free medium was added for 2 h at 37° C., 5% CO2, and 95% humidity.
Normal IgG was added in such a way that all groups contained the same amount of IgG proteins. All medium solutions were incubated for 1 h at 37° C., 5% CO2, and 95% humidity. After carefully aspirating the medium from cells, 200 μl of the medium containing different agents were added into appropriate wells. The cells were further cultured for 3 days.
At the end of incubation, the medium was carefully aspirated from cells and 120 μl of MTS working solution was added into all wells including four blank wells (without cells). The plate was incubated at 37° C., 5% CO2, and 95% humidity for 1 hour and then read by a plate reader at 490 nm wavelength.
Median optical density (OD) was generated from different groups. Data were expressed as mean±SEM of the OD values. Statistical analysis was performed using two-way ANOVA followed by the contrast procedure after Box-Cox transformations if needed, and p<0.05 was considered statistically significant. […] All the data from the individual wells were fitted to a re-parameterized four-parameter logistic equation to obtain IC50 using similar methodology as that previously described and utilizing the statistical analysis software JMP (SAS Institute, Cary, N.C.).

[2] = tested on: human retinal endothelial cells (HREC); test: Testing 7: VEGF-induced HREC proliferation (MTS assay), integrin antagonists and Lucentis alone and in combination; type: cell-based
Experimental: HREC were first cultured overnight in a 96-well plate coated with fibronectin. The next day medium containing different agents as shown in Tables 14 and 15 was pre-incubated for 1 hour before being added into appropriate wells. The cells were cultured at 37° C., 5% CO2, and 95% humidity for another 3 days. After that, cell proliferation was estimated by the MTS assay. In the first study we used VEGF 10 ng/mL (about EC80 in study PH08169), Lucentis® 1 ng/mL (about EC25 in study PH09038) and 5 doses of BOL-303055-X. Normal IgG (1 ng/ml) was also added to groups containing no Lucentis®. All groups contained the same amount of 0.1% DMSO. In the second study, all five compounds (BOL-303049-X, BOL-303050-X, BOL-303051-X, BOL-303054-X and BOL-303055-X) were tested at 1 nM with other conditions remaining the same.
A 96-well plate was coated with human fibronectin (10 μg/mL) for 5 hours at 37° C. HREC were washed with HBSS buffer once, tripsinized and re-suspended in 10% FBS CS-C medium at 18,000 cells/mL. Cells (200 μL) were added to the plate and cultured overnight at 37° C., 5% CO2, and 95% humidity. Next day, the cells were serum-starved for 2 hours.
For study I, VEGF at 10 ng/mL, Lucentis® at 1 ng/mL and BOL-303055-X at 0.1, 0.3, 1, 3 and 10 nM were prepared in 1% FBS CS medium as shown in Table 14. Normal IgG (1 ng/mL) were added to groups containing no Lucentis®. All medium solutions were incubated for 1 hour at 37° C. After carefully medium was aspirated, 200 μL of the medium containing different agents were then added into appropriate wells. The cells were cultured for another 3 days. For the study II as shown in the Table 15, five compounds were tested at 1 nM with other conditions remaining the same as study I.
At the end of incubation, the medium was carefully aspirated from cells and 120 μl of MTS working solution was added into all wells including blank wells (without cells). The plates were incubated at 37° C., 5% CO2, and 95% humidity for 1 hour and then read by a plate reader at 490 nm wavelength.
Median optical density (OD) was generated from different groups. Data were expressed as mean±SEM of the OD values. Statistical analysis was performed using three-way ANOVA after Box-Cox transformations, and p<0.05 was considered statistically significant. To evaluate whether the effects of the combinations were either synergistic or additive, net inhibitions were calculated by subtracting the basal levels in the presence of VEGF from the individual treatments (Lucentis® and Integrin blockers) and the combinations. […] Data analysis was performed utilizing the statistical analysis software JMP (SAS Institute, Cary, N.C.).

[3] = Ocular clinical findings in rats 14 days after intravitreal injection
Experimental: The anterior segment of the eye was examined using a slit-lamp biomicroscopy for excluding any animals with abnormalities that might interfere with the study. Fundus photography and fluorescein angiography (FA) were performed to document the health of the retina and the ocular circulation using a TRC 50EX fundus camera (Topcon). For FA, 10% sodium fluorescein was injected intravenously (50 mg/kg of body weight) through the tail vein or the vein under the incisor before the procedure.
Immediately after placement of laser photocoagulation, the experimental eyes received an intravitreal injection of either a compound or a vehicle as described in Table 5. Following the disinfection of ocular surface with 5% betadine and 0.9% saline solutions, the injections were performed with aid of a surgical microscope using 0.3 mL syringes with a 31-gauge ½-inch long needle (Ultra-Fine II™ Insulin syringe, BD, Franklin Lakes, N.J.).
Two weeks after photocoagulation, all rats were examined under anesthesia and pupil dilation with slit-lamp biomicroscopy, fundus photography and FA as described in the baseline examination.

[4] = study II, compound 1 nM, Lucentis 1 ng/mL
[5] = Day 14, 200 μg/eye intravitreal

Compound: COc1ccc(S(=O)(=O)N[C@@H](CNc2nc(C)nc(N3CCC(c4ccc5c(n4)NCCC5)CC3)c2C)C(=O)O)cc1 [BOL-303050-X]
- HREC proliferation in the presence of VEGF, compound alone ([1]; 1 nM): significantly reduced
- HREC proliferation in the presence of VEGF, compound alone ([1]; 10 nM): significantly reduced
- HREC proliferation under basal conditions ([1]; 1 and 10 nM tested, no VEGF): significant effects were only observed at 10 nM
- Combination effect with Avastin on VEGF-induced HREC proliferation (synergistic/additive) ([1]; compound 1 nM, Avastin 30 to 300 ng/ml): synergistic effects
- Combination effect with Avastin on VEGF-induced HREC proliferation (synergistic/additive) ([1]; compound 10 nM, Avastin at all doses): additive effect
- Improvement of the potency of Avastin ([1]; compound at 1 and 10 nM): 6- to 7 fold
- Combination effect with Lucentis on VEGF-induced HREC proliferation (synergistic/additive) [2, 4]: additive effects
- Eyes with anterior chamber inflammation/Total eyes [3, 5]: 0/6
- Eyes with retinal vascular congestion/vessel-observable eyes [3, 5]: 0/5
- Intraocular inflammation and retinal vascular congestion ([3]; Day 14 after intravitreal injection): Neither inflammation nor retinal vascular congestion was observed

Compound: COc1c(NC[C@H](NC(=O)OCc2ccccc2)C(=O)O)ncnc1N1CCC(c2ccc3c(n2)NCCC3)CC1 [BOL-303054-X]
- Combination effect with Lucentis on VEGF-induced HREC proliferation (synergistic/additive) [2, 4]: additive effects
- Eyes with anterior chamber inflammation/Total eyes [3, 5]: 4/6
- Eyes with retinal vascular congestion/vessel-observable eyes [3, 5]: 4/5

Compound: CCc1nc(NC[C@H](NC(=O)OCc2ccccc2)C(=O)O)c(C)c(N2CCC(c3ccc4c(n3)NCCC4)CC2)n1 [BOL-303055-X]
- Enhancement of Avastin potency ([1]; compound at 1 nM): approximately 6 fold
- Enhancement of Avastin potency ([1]; compound at 10 nM): ~7 fold
- HREC proliferation without VEGF ([2]; basal and Lucentis-treatment conditions, Lucentis 1 ng/mL, BOL-303055-X 0.1-10 nM, other compounds 1 nM): reduced HREC proliferation in a statistically significant and dose-dependent manner
- Inhibiting effect on VEGF-induced HREC proliferation in the presence of Lucentis versus without ([2]; study I, 0.1, 0.3, 1, 3 and 10 nM, Lucentis 1 ng/mL): significantly greater inhibiting effect
- Inhibition of VEGF-induced HREC proliferation, compound alone ([2]; study I, 0.1-10 nM, VEGF 10 ng/mL): inhibited VEGF-induced HREC proliferation in a dose-dependent manner
- Combination effect with Lucentis on VEGF-induced HREC proliferation (synergistic/additive) ([2]; study I, compound 0.1 nM, Lucentis 1 ng/mL): synergistic effects
- Combination effect with Lucentis on VEGF-induced HREC proliferation (synergistic/additive) ([2]; study I, compound 0.3 nM, Lucentis 1 ng/mL): additive
- Combination effect with Lucentis on VEGF-induced HREC proliferation (synergistic/additive) ([2]; study I, compound 1, 3 and 10 nM, Lucentis 1 ng/mL): additive
- Combination effect with Lucentis on VEGF-induced HREC proliferation (synergistic/additive) [2, 4]: additive effects
- Eyes with anterior chamber inflammation/Total eyes [3, 5]: 5/6
- Eyes with retinal vascular congestion/vessel-observable eyes [3, 5]: 2/2
- Posterior synechiae of iris [3, 5]: Posterior synechiae of iris occurred in several eyes

Compound: bevacizumab [Avastin, reference compound]
- Inhibition of VEGF-induced HREC proliferation by Avastin alone ([1]; 3-300 ng/ml, significant from 10 ng/ml): dose-dependent inhibition
- IC50 of Avastin on VEGF-induced HREC proliferation ([1]; in the presence of BOL-303050-X 1 nM): 15 ng/mL
- IC50 of Avastin on VEGF-induced HREC proliferation ([1]; in the presence of BOL-303050-X 10 nM): 13 ng/mL

Reference: US20110189174A1, “COMPOSITIONS AND METHODS FOR TREATING, REDUCING, AMELIORATING, ALLEVIATING, OR INHIBITING PROGRESSION OF, PATHOGENIC OCULAR NEOVASCULARIZATION” (priority 2010, published 2011)
